# Where two headings read alike, the source gives them in different places.
# Legend:
# [1] = system: acetic acid-induced writhes; test: Acetic acid writhing; format: in vivo, ICR-strain male mouse; details: i.p., 10 to 20 min after acetic acid
# Protocol: This test was carried out referring to the method of Inoue, K., Motonaga, A. & Nishimura, T (Arzneimittel Forshung/Drug Research, 41 (1): 235-239 (1991)). More specifically, 7.5 mL/kg of 0.9% acetic acid solution was injected intraperitoneally into an ICR-strain male mouse (5 to 7 weeks old), and the induced writhes (characteristic behaviors of convulsive contracting the abdomen, twisting the body and/or extending the legs) were observed. Number of writhes of each mouse was measured during 10 to 20 min. period after acetic acid administration. The compound of the present invention was homogeneously suspended in 2% Tween 80/saline for injection use, and was injected intraperitoneally 30 min. before the induction by the acetic acid injection. Alternatively, the compound of the present invention was homogeneously suspended in 2% Tween 80/distilled water, and was administrated orally two hours before the induction by the acetic acid injection. The analgesic activity of the compounds according to the present invention was evaluated on the basis of the degree of inhibiting the number writhes by the administration of the compounds. As the positive control, indomethacin or aspirin was administrated. The analgesic activity of the compounds according to the present invention measured in this test were exemplified in Table 7.
# [2] = system: picryl chloride-induced contact dermatitis (ear swelling); test: Mouse delayed contact dermatitis induced by picryl chloride; details: for Ear swelling after 24 hours Left (Not applied) (Mean ± S.E., mm): topical to right ear, non-treated left ear; for Ear swelling after 24 hours Right (Applied) (Mean ± S.E., mm): topical
# Protocol: This pharmacological test was carried out referring to the method of Asherson, G. L. & Ptak, W. (Immunology, 15: 405-416 (1968).) and the method of Jun Hiroi (Folia Pharmacology of Japan, 86: 233-239 (1985).). More specifically, hairs on the abdomen of an ICR-strain male mouse were removed using an electric clip and an electric shaver. Then, 0.1 mL of 7% ether solution of picryl chloride (Tokyo Kasei Kogyo Co., Ltd., C 0307) was applied onto the abdomen for sensitization. On the sixth day after the sensitization, 20 μL/ear of 1% olive oil solution of picryl chloride was topically applied to the anterior and posterior surfaces of both ears of the mouse to induce contact dermatitis (first induction). Before and 24 hours after the induction, the thicknesses of the particular parts on the both ears were measured three times, respectively, using a digimatic micrometer (Mitsutoyo Co., Ltd.) to work out the average values. Ear edema of the both ears was respectively determined by subtracting the average thickness of the each ear before the induction from that on 24 hours after the induction, so that a grouping was carried out to separate the appropriate individuals. On the fourth day after the first induction, the hairs on the abdomen were removed again, and 0.1 mL of 7% ethanol solution of picryl chloride was applied thereto for additional sensitization. The contact dermatitis for evaluating activity was induced by re-applying 20 μL/ear of 1% olive oil solution of picryl chloride to the anterior and posterior surfaces of both ears (second induction) on the seventh day after the additional sensitization (on the […] day after the first sensitization). The activity of each compound of the present invention was evaluated as the inhibition on the contact dermatitis as compared with that of the vehicle applied control. That is, the thicknesses of the particular portions of the both ears were measured respectively three times with a digimatic micrometer to work out the mean values before, 24 hours and 48 hours after the second induction. Ear swelling was determined by subtracting the ear thickness before the second induction from that on 24 hours and 48 hours after the second induction, respectively. Topical application activity was evaluated by applying 25 μL of the acetone solution of the compound of the present invention similarly to the anterior and posterior surfaces of the right ear one hour before and 16 hours after the second induction. As the positive control, 0.02 mg/20 μL of acetone solution of Dexamethasone (hereinafter referred to as DEX, Wako Pure Chemical Industries Ltd., 047-18863) was applied similarly as for the compound of the present invention. With respect to the inhibitory activity in topical application tests, the topical activity was determined by the inhibition of the applied right ear edema, and the translocation and distribution property was determined by the activity onto the swelling of non-treated left ear. Oral administration activity was evaluated by administrating 0.5% methyl cellulose suspension of the compound of the present invention forcibly and perorally to the mouse an hour before and 16 hours after the second induction. As the positive control, 20 mg/kg of Prednisolone (Sigma Chemical Co., P 6004) suspension was administrated similarly as for the compounds of the present invention.
# TPA-induced ear edema = format: in vivo, ICR-strain male mouse; details: topical, 6 hours after TPA
# Protocol: This test was carried out referring to the method of Carlson, R. P. et al. (Agents and Actions, 17(2): 197-204 (1985).) and the method of Chang, J. (European Journal of Pharmacology, 142: 197-205 (1987).). […] 6 hours later, the thickness of each ear at the particular part was respectively measured three times using a digimatic micrometer to calculate the mean value. Ear edema was determined by subtracting the mean thickness of the left ear as without treatment from that of the right ear as TPA-applied. […] As the positive control, 100 mg/kg of Hydrocortisone (Sigma Chemical Co., H 4001) suspension was applied to the mouse similarly as for the compound of the present invention.
# IV-cPLA(2) = biological target: T1, IV-cPLA(2) (Homo sapiens, UniProt P47712); test: PLA(2) activity, hydrolysis of bis-BODIPY FL C11-PC in activated U937 cells; format: cell-based
# T1 sequence (P47712 1-749): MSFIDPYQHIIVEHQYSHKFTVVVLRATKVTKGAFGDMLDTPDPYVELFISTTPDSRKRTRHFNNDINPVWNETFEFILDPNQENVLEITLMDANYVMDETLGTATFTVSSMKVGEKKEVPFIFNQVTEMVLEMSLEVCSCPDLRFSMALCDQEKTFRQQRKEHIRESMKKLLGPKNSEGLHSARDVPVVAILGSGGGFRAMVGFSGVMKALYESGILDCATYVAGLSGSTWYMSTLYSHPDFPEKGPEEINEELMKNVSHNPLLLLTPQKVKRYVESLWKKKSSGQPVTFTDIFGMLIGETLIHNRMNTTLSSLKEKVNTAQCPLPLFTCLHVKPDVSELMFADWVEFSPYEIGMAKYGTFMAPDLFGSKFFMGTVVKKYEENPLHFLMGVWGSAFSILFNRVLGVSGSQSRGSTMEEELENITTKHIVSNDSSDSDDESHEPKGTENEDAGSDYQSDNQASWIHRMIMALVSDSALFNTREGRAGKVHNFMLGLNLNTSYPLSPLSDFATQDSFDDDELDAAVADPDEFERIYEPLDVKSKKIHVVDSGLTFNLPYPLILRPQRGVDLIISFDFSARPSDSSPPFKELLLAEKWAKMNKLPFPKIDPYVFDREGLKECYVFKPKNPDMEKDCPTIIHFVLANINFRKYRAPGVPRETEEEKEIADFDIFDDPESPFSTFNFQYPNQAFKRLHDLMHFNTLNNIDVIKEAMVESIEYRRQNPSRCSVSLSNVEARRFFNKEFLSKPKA
# Protocol: The PLA(2) activity was measured by quantitatively analyzing the fluorescent product of hydrolysis from 1,2-bis-(4,4-difluoro-5,7-dimethyl-4-bora-3a,4a-diaza-s-indecene-3-undecanoyl)-sn-glycero-3-phosphocholine (hereinafter referred to bis-BODIPY®FL C11—PC, Molecular Probes, Inc., B-7701) using activated U937 cells (human monoblastic lymphoma cell line) by inflammatory stimulus (Meshulam, T. et al., The journal of Biological Chemistry 267 (30): 21465-21470 (1992); and Solito, E. et al., British Journal of Pharmacology 124: 1675-1683 (1998).). The substrate bis-BODIPY®FL C11—PC is incorporated into cellular membranes, the proximity of the BODIPY FL fluorophores on adjacent phospholipid acyl chains causes fluorescence self-quenching. Separation of the fluorophores upon hydrolytic cleavage of one of the acyl chains by PLA(1) or the PLA(2) results in increased fluorescence. In the activated U937 by inflammatory stimulus, it is shown that this substrate should be cleaved enzymatically by IV-cPLA(2) from the feature of its behaviors including sensitivity profiles against the inhibitors.
# The human cell line U937 was purchased from Dai-Nippon Pharmaceuticals Co., Ltd. The cells were maintained by transferring every 3-4 days into RPMI 1640 medium (Sigma Chemical Co., R6504) supplemented with heat-inactivated 10% fetal bovine serum (Fetal Bovine Serum, Sigma Chemical Co., F 4135) in a 5% CO2 humidified atmosphere at 37° C. The cells were transferred into the culture medium described above, containing 1.2% (v/v) dimethylsulfoxide (hereinafter referred to as […], Nacalai tesque Co., Ltd., D 134-45), and pre-cultured for 96 to 120 hours so as to differentiate into the macrophage-like cells to be provided for the assay. The macrophage-like cells were collected and washed by centrifugation with the Assay medium (Dulbecco's phosphate buffered saline (hereinafter referred to as PBS)-2.2 mM glucose-2.5 μm albumin). Then, Phorbol 12-Myristate 13-Acetate (hereinafter referred to as TPA, Sigma Chemical Co., P 8139) was added to the Assay medium to be 1×10^−8M as the final concentration. Then, the macrophage-like cells were further cultured for an hour to be activated (Rzigalinski, B. A. & Rosenthal, M. D., Biochimica et Biophysica Acta 1223: 219-225 (1994); and Gonchar, M. V. et al., Biochemical and Biophysical Research Communication, 249: 829-832 (1998).).
# For preparing substrate liposome suspension, bis-BODIPY®FL C11—PC was combined with phosphatidylcholine (Sigma Chemical Co., P 7769) at 1:9 molar ratio in chloroform, and dried under nitrogen flow. The dried mixture was suspended with the Assay medium at 100 μg/mL, voltexed and sonicated for an hour on ice under dark condition.
# The test compound was dissolved with DMSO at 30 mM, and the solution diluted with either DMSO or the Assay medium before addition into the reaction mixture. The DMSO concentration in the reaction mixture was controlled so as to be no more than 0.1%. The 30-fold concentration of test compound solution was put into each well of MICRPTEST™ Tissue Culture Plate, 96 Well (Falcon, 3072) at a rate of 2.5 μL/well. To the respective well was added 25 μL/well of the activated U937 cell suspension ([…]), and the cells were pre-cultured for 120 min. at 37° C. in a 5% CO2 atmosphere incubator. 47.5 μL/well of the substrate liposome suspension with 1.5×10^−6M A23187 (Sigma Chemical Co., C 7522) was added into each well to prepare 75 μL/well of the total reaction mixture, followed by culture for 30 min. under the same conditions with shielding against light. 100 μL/well of 0.1% GEDTA (Dojindo Laboratories Co. Ltd., 348-01311) methanol solution was added into each well and mixed to stop the reaction. […]
compound,measurement,setting,value
"CC(=O)Oc1ccccc1C(=O)O [Aspirin, aspirin, reference compound]",Number of writhes (Mean ± S.E.),[1]; 30 mg/kg,9.5 ± 2.0
CC(=O)N=C1SC(c2ccccc2)C(C)N1C(=O)NC1CCCCC1 (stereo not drawn) [Compound 1-43],"Ear swelling after 24 hours Left (Not applied) (Mean ± S.E., mm)",[2]; 1.5 mg/25 μL/ear × 2,0.201 ± 0.008 mm
same,"Ear swelling after 24 hours Right (Applied) (Mean ± S.E., mm)",[2]; 1.5 mg/25 μL/ear × 2,0.196 ± 0.029 mm
CC1C(c2ccc3c(c2)CCCC3)OC(=O)N1C(=O)NC1CCCCO1 (stereo not drawn) [Compound 2-125],Ear Edema Inhibition (%),TPA-induced ear edema; 1 mg/40 μL/ear × 2,62%
same,Inhibition (%),IV-cPLA(2); 0.1 μM,62%
CC1C(c2ccc3c(c2)CCC3)OC(=O)N1C(=O)NC1CCCCO1 (stereo not drawn) [Compound 2-127],Ear Edema Inhibition (%),TPA-induced ear edema; 1 mg/40 μL/ear × 2,81%
same,Inhibition (%),IV-cPLA(2); 0.01 μM,54%
CC1C(c2ccc(Oc3ccccc3)cc2)OC(=O)N1C(=O)NC1CCCO1 (stereo not drawn) [Compound 2-128],Ear Edema Inhibition (%),TPA-induced ear edema; 1 mg/40 μL/ear × 2,49%
same,Inhibition (%),IV-cPLA(2); 1 μM,81%
CC1C(c2ccccn2)OC(=O)N1C(=O)Nc1ccc(Cl)cc1 (stereo not drawn) [Compound 2-146],Ear Edema Inhibition (%),TPA-induced ear edema; 1 mg/40 μL/ear × 2,80%
same,Inhibition (%),IV-cPLA(2); 0.1 μM,85%
Cc1ccc(C2OC(=O)N(C(=O)NC3CCCCO3)C2C)cc1C (stereo not drawn) [Compound 2-156],Ear Edema Inhibition (%),TPA-induced ear edema; 1 mg/20 μL/ear × 2,48%
same,Inhibition (%),IV-cPLA(2); 0.1 μM,88%
Cc1ccc(C2OC(=O)N(C(=O)NC3CCCCO3)C2C)cc1 (stereo not drawn) [Compound 2-170],Ear Edema Inhibition (%),TPA-induced ear edema; 0.3 mg/20 μL/ear × 2,57%
same,Inhibition (%),IV-cPLA(2); 0.1 μM,82%
CC1C(c2ccc(Cl)cc2)SC(=O)N1C(=S)NC1CCCCC1 (stereo not drawn) [Compound 2-194],"Ear swelling after 24 hours Left (Not applied) (Mean ± S.E., mm)",[2]; 1.5 mg/25 μL/ear × 2,0.226 ± 0.016 mm
same,"Ear swelling after 24 hours Right (Applied) (Mean ± S.E., mm)",[2]; 1.5 mg/25 μL/ear × 2,0.223 ± 0.010 mm
same,Inhibition (%),IV-cPLA(2); 1 μM,78%
CC1C(c2ccc(C(=O)OC(F)(F)F)cc2)SC(=O)N1C(=O)NC1CCCCO1 (stereo not drawn) [Compound 2-240],"Ear swelling after 24 hours Left (Not applied) (Mean ± S.E., mm)",[2]; 1.5 mg/25 μL/ear × 2,0.238 ± 0.024 mm
same,"Ear swelling after 24 hours Right (Applied) (Mean ± S.E., mm)",[2]; 1.5 mg/25 μL/ear × 2,0.246 ± 0.009 mm
"C[C@@H]1C[C@H]2[C@@H]3CCC4=CC(=O)C=C[C@]4(C)[C@@]3(F)[C@@H](O)C[C@]2(C)[C@@]1(O)C(=O)CO [DEX, Dexamethasone, reference compound]",Change in body weight 48 hours after induction (Mean ± S.E.),[2]; 0.02 mg/ear × 2,-1.42 ± 0.20 g
same,Change in body weight 48 hours after induction (Mean ± S.E.) (%),[2]; 0.02 mg/ear × 2,−4.30 ± 0.59%
same,General condition and body weight of mice,[2]; 48 hours after the second induction,generally bad symptoms and reducing their body weight significantly
same,"Ear swelling after 24 hours Left (Not applied) (Mean ± S.E., mm)",[2]; dose 0.02 mg/ear × 2,−0.005 ± 0.033 mm
same,"Ear swelling after 24 hours Right (Applied) (Mean ± S.E., mm)",[2]; dose 0.02 mg/ear × 2,0.057 ± 0.009 mm
"COc1ccc2c(c1)c(CC(=O)O)c(C)n2C(=O)c1ccc(Cl)cc1 [Indomethacin, indomethacin, reference compound]",Number of writhes (Mean ± S.E.),[1]; 3 mg/kg,13.8 ± 3.0
same,Number of writhes (Mean ± S.E.),[1]; 10 mg/kg,4.8 ± 0.9
